Columns and labels:
Assay in all cases: Specific kinase IC50 assay
Type in all cases: biochemical
Settings in all cases: 1 μM ATP, 10-dose, duplicate
TEC = biological target: T1, TEC (Homo sapiens, UniProt P42680)
T1 sequence (P42680 1-631): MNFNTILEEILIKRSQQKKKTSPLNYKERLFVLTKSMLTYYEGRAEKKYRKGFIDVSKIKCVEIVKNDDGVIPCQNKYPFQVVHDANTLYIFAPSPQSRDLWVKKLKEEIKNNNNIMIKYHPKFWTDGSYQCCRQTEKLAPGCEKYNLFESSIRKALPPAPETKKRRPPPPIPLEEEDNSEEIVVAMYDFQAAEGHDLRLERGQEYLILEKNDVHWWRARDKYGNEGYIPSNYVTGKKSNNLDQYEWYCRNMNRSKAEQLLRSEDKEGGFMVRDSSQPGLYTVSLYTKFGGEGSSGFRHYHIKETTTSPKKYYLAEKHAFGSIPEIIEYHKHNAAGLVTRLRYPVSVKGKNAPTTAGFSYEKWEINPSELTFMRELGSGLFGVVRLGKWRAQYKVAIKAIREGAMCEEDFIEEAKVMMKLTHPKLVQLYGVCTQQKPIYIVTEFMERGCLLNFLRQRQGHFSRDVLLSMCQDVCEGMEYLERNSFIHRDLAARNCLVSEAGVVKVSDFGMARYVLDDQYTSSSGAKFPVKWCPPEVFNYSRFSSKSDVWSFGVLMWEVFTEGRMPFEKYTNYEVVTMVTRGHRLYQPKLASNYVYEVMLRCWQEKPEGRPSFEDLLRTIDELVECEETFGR
Experimental: (§1) The assays were carried out in the presence of 1 μM ATP and were conducted in a 10-dose format in duplicate with three-fold serial dilutions starting at 10 μM.

BMX/ETK = biological target: T2, BMX/ETK (Homo sapiens, UniProt P51813)
T2 sequence (P51813 1-675): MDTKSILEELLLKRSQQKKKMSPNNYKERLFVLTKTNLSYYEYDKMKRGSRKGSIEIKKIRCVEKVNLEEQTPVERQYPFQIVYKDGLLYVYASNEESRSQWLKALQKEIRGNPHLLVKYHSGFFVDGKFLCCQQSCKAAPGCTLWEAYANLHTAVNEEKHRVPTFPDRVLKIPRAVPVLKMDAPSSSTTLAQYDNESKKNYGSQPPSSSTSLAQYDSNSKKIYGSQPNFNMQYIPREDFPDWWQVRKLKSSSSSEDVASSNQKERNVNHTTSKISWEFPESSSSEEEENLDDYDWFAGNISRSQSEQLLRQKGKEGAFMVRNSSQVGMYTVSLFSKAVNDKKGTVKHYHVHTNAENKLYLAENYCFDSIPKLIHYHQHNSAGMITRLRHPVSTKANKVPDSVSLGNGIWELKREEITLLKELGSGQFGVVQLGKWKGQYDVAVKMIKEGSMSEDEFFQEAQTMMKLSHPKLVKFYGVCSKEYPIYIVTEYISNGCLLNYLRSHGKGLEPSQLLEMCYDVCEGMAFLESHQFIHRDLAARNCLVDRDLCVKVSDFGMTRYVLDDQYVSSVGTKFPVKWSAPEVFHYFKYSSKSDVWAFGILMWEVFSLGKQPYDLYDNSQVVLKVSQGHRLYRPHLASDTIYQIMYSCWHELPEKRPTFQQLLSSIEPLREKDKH
Experimental: as §1

ERBB4/HER4 = ERBB4/HER4 (Homo sapiens, UniProt Q15303)
Sequence of ERBB4/HER4 (Q15303 26-1308): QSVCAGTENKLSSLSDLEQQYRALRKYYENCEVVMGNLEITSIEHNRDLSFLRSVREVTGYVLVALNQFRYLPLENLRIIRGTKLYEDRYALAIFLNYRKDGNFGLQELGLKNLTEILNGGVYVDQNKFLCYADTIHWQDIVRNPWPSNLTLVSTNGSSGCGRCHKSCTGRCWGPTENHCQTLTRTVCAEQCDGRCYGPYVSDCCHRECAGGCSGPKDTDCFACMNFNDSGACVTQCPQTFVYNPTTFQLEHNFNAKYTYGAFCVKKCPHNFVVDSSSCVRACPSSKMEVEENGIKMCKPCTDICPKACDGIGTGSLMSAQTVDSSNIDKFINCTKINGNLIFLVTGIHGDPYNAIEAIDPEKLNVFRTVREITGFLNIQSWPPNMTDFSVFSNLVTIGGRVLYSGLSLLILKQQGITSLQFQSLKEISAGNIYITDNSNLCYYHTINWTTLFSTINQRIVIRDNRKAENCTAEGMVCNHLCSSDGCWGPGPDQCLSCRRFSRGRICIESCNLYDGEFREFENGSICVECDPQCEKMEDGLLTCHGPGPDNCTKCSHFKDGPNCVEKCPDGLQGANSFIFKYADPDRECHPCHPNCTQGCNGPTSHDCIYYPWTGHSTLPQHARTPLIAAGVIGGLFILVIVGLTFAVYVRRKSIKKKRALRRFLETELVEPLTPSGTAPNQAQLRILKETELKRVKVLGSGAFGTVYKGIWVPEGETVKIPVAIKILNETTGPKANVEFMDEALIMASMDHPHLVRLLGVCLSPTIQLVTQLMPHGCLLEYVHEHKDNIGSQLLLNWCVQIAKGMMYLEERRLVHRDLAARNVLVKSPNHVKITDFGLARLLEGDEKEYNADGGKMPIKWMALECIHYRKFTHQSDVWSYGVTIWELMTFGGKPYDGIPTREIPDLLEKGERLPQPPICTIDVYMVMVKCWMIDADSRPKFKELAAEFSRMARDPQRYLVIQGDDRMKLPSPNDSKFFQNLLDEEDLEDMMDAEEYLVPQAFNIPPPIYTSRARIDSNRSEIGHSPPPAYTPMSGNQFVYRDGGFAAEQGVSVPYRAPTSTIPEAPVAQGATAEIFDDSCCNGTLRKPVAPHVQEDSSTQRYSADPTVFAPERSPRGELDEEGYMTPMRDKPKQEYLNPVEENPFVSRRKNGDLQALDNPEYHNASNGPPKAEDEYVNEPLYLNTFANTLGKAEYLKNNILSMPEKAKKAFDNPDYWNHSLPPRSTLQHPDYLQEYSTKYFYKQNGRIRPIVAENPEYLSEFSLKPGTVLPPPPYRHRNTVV
Experimental: as §1

EGFR (T790M) = EGFR (T790M) (Homo sapiens, UniProt P00533, T790M)
Sequence of EGFR (T790M) (P00533 25-1210 T790M, species assumed): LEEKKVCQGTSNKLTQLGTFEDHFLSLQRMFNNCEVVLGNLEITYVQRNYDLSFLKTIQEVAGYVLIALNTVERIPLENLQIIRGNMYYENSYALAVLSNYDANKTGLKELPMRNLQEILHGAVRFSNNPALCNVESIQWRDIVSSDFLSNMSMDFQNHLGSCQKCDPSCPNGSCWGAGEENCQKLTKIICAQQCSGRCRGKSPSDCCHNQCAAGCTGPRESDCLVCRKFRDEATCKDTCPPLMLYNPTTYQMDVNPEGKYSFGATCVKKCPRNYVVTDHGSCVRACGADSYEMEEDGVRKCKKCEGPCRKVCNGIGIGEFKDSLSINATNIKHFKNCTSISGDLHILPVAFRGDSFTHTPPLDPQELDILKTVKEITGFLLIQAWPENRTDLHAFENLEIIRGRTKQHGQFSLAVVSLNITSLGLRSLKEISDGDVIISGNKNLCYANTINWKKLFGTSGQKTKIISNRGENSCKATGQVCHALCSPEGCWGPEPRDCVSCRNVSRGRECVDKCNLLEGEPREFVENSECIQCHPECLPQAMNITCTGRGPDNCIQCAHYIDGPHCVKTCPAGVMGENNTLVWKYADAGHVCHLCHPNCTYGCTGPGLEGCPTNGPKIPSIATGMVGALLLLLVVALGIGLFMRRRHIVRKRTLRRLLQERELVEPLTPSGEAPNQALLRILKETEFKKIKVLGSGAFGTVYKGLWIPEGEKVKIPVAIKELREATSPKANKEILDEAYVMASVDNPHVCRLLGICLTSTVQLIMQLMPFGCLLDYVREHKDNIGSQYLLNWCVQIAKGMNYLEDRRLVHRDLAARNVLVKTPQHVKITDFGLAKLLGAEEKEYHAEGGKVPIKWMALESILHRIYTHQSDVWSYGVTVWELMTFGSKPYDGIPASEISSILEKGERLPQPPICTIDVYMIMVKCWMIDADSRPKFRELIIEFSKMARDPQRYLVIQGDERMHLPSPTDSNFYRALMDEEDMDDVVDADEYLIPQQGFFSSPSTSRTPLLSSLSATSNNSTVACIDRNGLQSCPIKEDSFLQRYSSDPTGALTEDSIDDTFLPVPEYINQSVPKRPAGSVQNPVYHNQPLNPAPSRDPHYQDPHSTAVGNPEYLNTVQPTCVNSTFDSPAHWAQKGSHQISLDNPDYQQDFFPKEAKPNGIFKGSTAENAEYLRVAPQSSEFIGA
Experimental: as §1

JAK3 = biological target: T3, JAK3 (Homo sapiens, UniProt P52333)
T3 sequence (P52333 1-1124): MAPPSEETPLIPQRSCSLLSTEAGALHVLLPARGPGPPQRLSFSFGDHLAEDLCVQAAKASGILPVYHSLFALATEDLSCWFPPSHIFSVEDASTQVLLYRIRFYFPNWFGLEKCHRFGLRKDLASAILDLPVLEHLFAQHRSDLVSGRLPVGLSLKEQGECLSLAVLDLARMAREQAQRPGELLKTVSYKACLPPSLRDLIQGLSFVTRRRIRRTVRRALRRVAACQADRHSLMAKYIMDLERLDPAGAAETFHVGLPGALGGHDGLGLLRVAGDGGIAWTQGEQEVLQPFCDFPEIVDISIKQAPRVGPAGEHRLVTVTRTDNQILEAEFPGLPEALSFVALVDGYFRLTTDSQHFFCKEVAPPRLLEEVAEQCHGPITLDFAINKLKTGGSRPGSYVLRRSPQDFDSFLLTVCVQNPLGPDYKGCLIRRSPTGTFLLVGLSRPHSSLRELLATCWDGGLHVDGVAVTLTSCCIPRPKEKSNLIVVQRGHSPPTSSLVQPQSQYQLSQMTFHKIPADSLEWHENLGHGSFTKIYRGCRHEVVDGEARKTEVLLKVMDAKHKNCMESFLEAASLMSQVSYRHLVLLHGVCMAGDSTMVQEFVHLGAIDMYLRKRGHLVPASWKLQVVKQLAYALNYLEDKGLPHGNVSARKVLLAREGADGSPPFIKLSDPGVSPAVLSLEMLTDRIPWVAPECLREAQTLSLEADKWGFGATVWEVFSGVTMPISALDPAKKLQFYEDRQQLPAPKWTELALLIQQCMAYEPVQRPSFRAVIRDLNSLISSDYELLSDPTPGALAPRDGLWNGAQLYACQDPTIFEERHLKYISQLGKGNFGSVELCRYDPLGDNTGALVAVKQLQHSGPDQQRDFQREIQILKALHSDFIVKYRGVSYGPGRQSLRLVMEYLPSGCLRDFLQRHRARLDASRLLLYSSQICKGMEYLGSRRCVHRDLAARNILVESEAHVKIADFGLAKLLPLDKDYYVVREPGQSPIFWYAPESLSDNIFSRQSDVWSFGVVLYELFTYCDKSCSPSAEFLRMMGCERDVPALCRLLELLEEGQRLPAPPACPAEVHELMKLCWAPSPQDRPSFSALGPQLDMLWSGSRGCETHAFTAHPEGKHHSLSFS
Experimental: as §1

Question: Which results are given for `C=CC(=O)Nc1cccc(-c2nc(Nc3cccc(N4CCOCC4)c3)nc3[nH]ncc23)c1` [Compound 3, N-(3-(6-((3-morpholinophenyl)amino)-1H-pyrazolo[3,4-d]pyrimidin-4-yl)phenyl)acrylamide]?
Answer: IC50 (TEC): 0.0502 µM; IC50 (BMX/ETK): 0.00926 µM; IC50 (ERBB4/HER4): 0.0175 µM; IC50 (EGFR (T790M)): 0.979 µM; IC50 (JAK3): 0.0666 µM
